Experimental data as given in US8084020B2, “Use of anti-CD1 antibodies for the modulation of immune responses” (Beth Israel Deaconess Medical Center, priority 2002, dated 2011).

Assays:
[1] = tested on: antigen presenting cells; assay: Induction of IL-12 production by antigen presenting cells / monocytes in vitro; assay type: cell-based
Text: (§1) PBMC were obtained from healthy adult volunteers of both sexes on Ficoll Hypaque density gradients and cultured in complete medium consisting of RPMI 1640 and 10% FBS. THP-1 is a human monocytic leukaemia cell line. Compared to other human myeloid cell lines, such as HL-60 and U937, THP-1 cells express CD1d on their surfaces. Because of this characteristic, the THP-1 cell line provides a valuable model for studying the mechanism involved in CD1d crosslinking by measuring the IL-12 and phospho kinases in the cell. THP-1 cells was cultured in complete medium consisting of RPMI 1640 and 10% FBS.
(§2) For the activation of these target cells, an anti-CD1 antibody was bound to a plate and then incubated with the cells. In particular, […] were coated with 10 μg/ml protein G overnight at 4° C. Wells were washed with PBS and blocked with BSA at room temperature for four hours. Antibody (10 μg/ml) was added to each well for four hours at room temperature. The wells were washed again to remove the unbound antibodies, and 1.5×10^5 to 2×10^5 cells were added to each well in RPMI 1640 culture media.
(§3) To measure the increase induction of IL-12 production by an anti-CD1 antibody, the concentrations of P40 and P70 forms of IL-12 in cultured supernatants were measured with a standard sandwich ELISA technique using combinations of monoclonal antibodies to different epitopes of each cytokine (FIGS. 4-22).

[2] = tested on: adhered PBMC; assay: IL-1α release from adhered PBMC; assay type: cell-based, human
Text: as §1, §2

[3] = tested on: THP-1 cells; assay: IL-12 p40 release from THP-1 cells (ELISA); assay type: cell-based, human; conditions: FIG. 14; with and without PMA (0.1 ng/ml); 2% serum media; IFNγ (20 ng/ml); two days
Text: as §1
as §2, with “The wells were washed again to remove the unbound antibodies, and 1.5×10^5 to 2×10^5 cells were added to each well in RPMI 1640 culture media.” left out
as §3

## lipopolysaccharide [LPS]
[1]
  levels of IL-12 stimulated relative to 51.1 anti-CD1 antibody: comparable or lower levels of IL-12
[2]
  induction of IL-1 relative to 51.1 anti-CD1 antibody: more potent inducer of IL-1

## IFNγ: cytokine
[1]
  effect of cytokine on anti-CD1 antibody enhanced production of IL-12: increased the ability of anti-CD1 antibodies to enhance production of IL-12

## CCCCCCCCCCCCCC(=O)O[C@@H]1[C@@H](C)[C@@]2(O)[C@@H](C=C(CO)C[C@]3(O)C(=O)C(C)=C[C@@H]23)[C@@H]2C(C)(C)[C@]12OC(C)=O [PMA]
[3]
  effect of PMA on IL-12 p40 released from THP-1 cells: no significant differences

B1: IL-4: cytokine (protein, UniProt P05112 25-153, looked up)
Interleukin-4: HKCDITLQEIIKTLNSLTEQKTLCTELTVTDIFAASKNTTEKETFCRAATVLRQFYSHHEKDTRCLGATAQQFHRHKQLIRFLKRLDRNLWGLAGLNSCPVKEANQSTLENFLERLKTIMREKYSKCSS
[1]
  effect of cytokine on anti-CD1 antibody enhanced production of IL-12: increased the ability of anti-CD1 antibodies to enhance production of IL-12
